Test results published in patent publication EP1362589A1, “The use of R(+)-alpha-(2,3-dimethoxyphenyl)-1-(2-(4-fluorophenyl)ethyl)-4- piperidinemethanol for the treatment of sleep disorders” (Aventis Pharmaceuticals Inc., priority 1998, dated 2000).

Legend:
Format in all cases: in vivo
healthy subjects [1] = test: Oral doses 3-72 mg in healthy subjects, reported drowsiness (Example 4D); conditions: 72mg dose (n=4); only this group among 3, 9, 18, 36 and 72mg reported drowsiness
Experimental: Only the group receiving the 72mg dose reported drowsiness (n=3).

[2] = tested on: patients diagnosed with schizophrenia; test: Oral twice-daily dosing in patients with schizophrenia, reported insomnia and somnolence (Example 4B); conditions: orally
Experimental: Forty percent of the subjects receiving the 20mg dose (2 out of 5) and sixty percent of the subjects receiving the 10mg dose (3 out of 5) experienced mild to moderate sedation. […] The following data were reported.

healthy subjects [3] = test: Single oral dose in healthy subjects, reported sedation (Example 4A); conditions: orally
Experimental: Forty percent of the subjects receiving the 20mg dose (2 out of 5) and sixty percent of the subjects receiving the 10mg dose (3 out of 5) experienced mild to moderate sedation. […]

healthy subjects [4] = test: Oral doses in healthy subjects, reported drowsiness (Example 4C); conditions: for Drowsiness, % of subjects / Drowsiness, n subjects: group n=4
Experimental: The following data were reported. […] Only the group receiving the 72mg dose reported drowsiness ([…]).

[5] = tested on: newborn Sprague Dawley rats; test: Depression of genioglossal EMG induced by L-Tryptophan and Pargyline
Experimental: (§1) Experiments were carried out on newborn Sprague Dawley rats from Iffa Credo breeding centre. The animals were anaesthetised by intraperitoneal injection of low doses of sodium pentobarbitone (7-10mg/kg), kept lying (dorsal cubitus) on a warming blanket and were spontaneously ventilating.
(§2) The EMG activity of the genioglossal muscles and the diaphragm were recorded with fine insulated wires (bipolar recordings) inserted within the muscles, filtered (100-3,000 Hz), amplified (x 5-10,000) and integrated (time constant 50 ms). The rib cage movements were recorded via a captor gently touching the lower ribs and/or the abdominal wall. The air flow changes resulting from the respiratory chest movements were recorded via a facial mask and a highly sensitive pressure recorder.
Ten to fifteen minutes after induction of anaesthesia, the animals received first an intraperitoneal injection of the COMPOUND, and a control recording was taken to define the mean amplitude of the integrated EMGs. Then, the animal received an intraperitoneal injection of L-Tryptophan plus Pargyline ("L-Trp+Parg") 10mg/kg and 50mg/kg, respectively, and the changes in EMG amplitudes were checked every 10 minutes and were expressed as % of control values.

[6] = tested on: newborn Sprague Dawley rats; test: Occurrence of obstructive apneas induced by L-Tryptophan and Pargyline injection
Experimental: Intraperitoneal application of L-Tryptophan (10mg/kg) and Pargyline (50mg/kg) to anaesthesized newborn rats depressed the amplitude of the inspiratory discharges of the genioglossal muscle and induced obstructive apneas (OA).
as §1, §2

## COc1cccc([C@H](O)C2CCN(CCc3ccc(F)cc3)CC2)c1OC [COMPOUND, R-(+)-α-(2,3-Dimethoxyphenyl)-1-[2-(4-fluorophenyl)ethyl]-4-piperidinemethanol]
Healthy subjects [1]
  reported drowsiness, n subjects: 3
[2]; 10 mg (5mg twice daily)
  Insomnia, % of subjects: N=0; 0%
  Insomnia, N (number of subjects that reported the effect): N=0; 0%
  Somnolence, % of subjects: 20%
  Somnolence, N (number of subjects that reported the effect): 3
[2]; 20 mg (10mg twice daily)
  Insomnia, % of subjects: 21.4%
  Insomnia, N (number of subjects that reported the effect): 3
  Somnolence, % of subjects: 15.4%
  Somnolence, N (number of subjects that reported the effect): N=1;
[2]; 40 mg (20mg twice daily)
  Insomnia, % of subjects: 23.1%
  Insomnia, N (number of subjects that reported the effect): 3
  Somnolence, % of subjects: 15.4%
  Somnolence, N (number of subjects that reported the effect): N=2;
Healthy subjects [3]; single 10mg dose
  subjects experienced mild to moderate sedation: 3 out of 5
Healthy subjects [3]; single 20mg dose
  subjects experienced mild to moderate sedation: 2 out of 5
Healthy subjects [4]; 9 mg orally
  Drowsiness, % of subjects: 50%
  Drowsiness, n subjects: 2
Healthy subjects [4]; 18 mg orally
  Drowsiness, % of subjects: 100%
  Drowsiness, n subjects: 4
Healthy subjects [4]; 36 mg orally
  Drowsiness, % of subjects: 100%
  Drowsiness, n subjects: 4
Healthy subjects [4]; 72 mg and above
  drowsiness rating: moderate to severe
Healthy subjects [4]; 72 mg orally
  Drowsiness, % of subjects: 75%
  Drowsiness, n subjects: 3
Healthy subjects [4]; 108 mg orally
  Drowsiness, % of subjects: 100%
  Drowsiness, n subjects: 4
Healthy subjects [4]; 138 mg orally
  Drowsiness, % of subjects: 100%
  Drowsiness, n subjects: 4
Healthy subjects [4]; doses below 72 mg
  drowsiness rating: mild or moderate
[5]; pre-treatment 0.1 mg/kg intraperitoneal, ten animals
  prevention of the depression of genioglossal (GG) discharge induced by L-Trp+Parg: did not prevent
[5]; pre-treatment 1mg/kg intraperitoneal, ten newborn rats
  prevention of the depression of genioglossal (GG) discharge induced by L-Trp+Parg: efficient in preventing the GG depression
[5]; pre-treatment 3mg/kg intraperitoneal, ten animals
  prevention of the depression of genioglossal (GG) discharge induced by L-Trp+Parg: confirmed the efficiency
[6]; pre-treatment 0.1 mg/kg
  animals that died of respiratory distress: 4 of the 10
  newborn rats in which L-Trp+Parg injection induced OAs: 9 of 10
[6]; pre-treatment 1mg/kg
  newborn rats that did not present short lasting OAs at all: Five out of ten
  newborn rats which displayed OAs: 5 of 10
  newborn rats with long lasting OAs: one
  survival to L-Trp+Parg injection: all animals survived
[6]; pre-treatment 1mg/kg, among the 5 of 10 which displayed OAs
  animals with infrequent OAs (less than 5 short lasting OAs in 60 minutes): 2
[6]; pre-treatment 1mg/kg, between 20-40 min after the injection, mean curve
  peak frequency of occurrence of short lasting OAs: 4 OAs per 10 minute period
[6]; pre-treatment 3mg/kg
  animals that displayed long lasting OAs: None of the 10
  rats with a total of less than 3 short lasting Oas: 3 of 10
  rats with no short lasting Oas: 5 of 10
  survival: all survived
  treated rats with frequent short lasting Oas: 2 of 10

## Cn1c(=O)c2[nH]cnc2n(C)c1=O [theophylline, reference compound]
[5]; 10mg/kg, five newborn rats
  prevention of depression of the amplitude of GG inspiratory discharges by L-Trp+Prg: not prevented
[5]; 30mg/kg, 5 animals
  prevention of depression of the amplitude of GG inspiratory discharges by L-Trp+Prg: not prevented
[6]; 10 mg/kg
  prevention of induction of OAs after L-Trp+Prg injection: not prevented
[6]; 30 mg/kg
  prevention of induction of OAs after L-Trp+Prg injection: not prevented
